Source: article PMC10629825, “Genetic validation of PfFKBP35 as an antimalarial drug target” (eLife, 2023)

Assays:
Type in all cases: biochemical
[1] = target: T1, PfFKBP35 (Plasmodium falciparum, UniProt Q8I4V8); test: isothermal dose-response MS-CETSA on parasite protein lysate ([…]°C); live-cell CETSA EC50 […]
T1 construct: gene FKBP35; endogenous protein in parasite lysate

[2] = target: T2, N6-methyl transferase MT-A70 (Plasmodium falciparum, UniProt Q8I6Z2); test: isothermal dose-response MS-CETSA on parasite protein lysate (putative target)
T2 construct: gene PF3D7_0729500; endogenous protein in parasite lysate

[3] = target: T3, pre-mRNA-splicing factor CEF1 (Plasmodium falciparum, UniProt Q7KQL1); test: as above
T3 construct: gene PF3D7_1033600; endogenous protein in parasite lysate
T3 sequence (Q7KQL1 entry or part of it): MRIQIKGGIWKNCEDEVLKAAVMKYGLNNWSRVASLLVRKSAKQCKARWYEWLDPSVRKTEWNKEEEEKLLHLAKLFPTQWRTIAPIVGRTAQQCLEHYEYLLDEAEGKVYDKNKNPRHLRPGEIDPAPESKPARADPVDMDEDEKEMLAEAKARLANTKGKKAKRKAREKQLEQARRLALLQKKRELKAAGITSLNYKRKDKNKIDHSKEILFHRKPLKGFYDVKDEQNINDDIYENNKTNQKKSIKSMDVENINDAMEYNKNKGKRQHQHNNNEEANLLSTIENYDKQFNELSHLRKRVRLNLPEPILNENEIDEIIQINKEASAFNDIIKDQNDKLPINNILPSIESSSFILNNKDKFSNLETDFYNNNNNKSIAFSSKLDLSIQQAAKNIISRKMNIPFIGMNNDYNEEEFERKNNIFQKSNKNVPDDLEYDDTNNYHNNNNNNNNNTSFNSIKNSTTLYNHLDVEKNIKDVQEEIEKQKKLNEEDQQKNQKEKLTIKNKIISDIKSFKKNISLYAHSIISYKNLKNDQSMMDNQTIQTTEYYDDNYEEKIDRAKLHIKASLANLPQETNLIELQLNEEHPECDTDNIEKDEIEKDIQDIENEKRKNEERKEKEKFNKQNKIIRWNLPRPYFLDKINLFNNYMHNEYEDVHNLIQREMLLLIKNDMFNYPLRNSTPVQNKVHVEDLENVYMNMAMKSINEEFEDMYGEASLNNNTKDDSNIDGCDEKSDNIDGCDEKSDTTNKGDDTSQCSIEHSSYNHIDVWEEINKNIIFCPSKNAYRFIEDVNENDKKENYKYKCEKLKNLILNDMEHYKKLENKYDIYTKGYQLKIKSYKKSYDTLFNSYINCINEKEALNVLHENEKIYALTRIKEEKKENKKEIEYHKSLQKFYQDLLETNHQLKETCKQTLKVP

T1 sequence (Q8I4V8 whole entry): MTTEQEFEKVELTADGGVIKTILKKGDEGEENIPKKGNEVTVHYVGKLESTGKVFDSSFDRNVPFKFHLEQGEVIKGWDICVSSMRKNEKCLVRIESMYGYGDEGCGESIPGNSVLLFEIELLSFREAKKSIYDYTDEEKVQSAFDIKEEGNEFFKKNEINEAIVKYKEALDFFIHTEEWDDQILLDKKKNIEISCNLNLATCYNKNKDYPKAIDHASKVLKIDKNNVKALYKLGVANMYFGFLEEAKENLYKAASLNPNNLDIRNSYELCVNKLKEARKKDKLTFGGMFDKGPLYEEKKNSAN
T2 sequence (Q8I6Z2 entry or part of it): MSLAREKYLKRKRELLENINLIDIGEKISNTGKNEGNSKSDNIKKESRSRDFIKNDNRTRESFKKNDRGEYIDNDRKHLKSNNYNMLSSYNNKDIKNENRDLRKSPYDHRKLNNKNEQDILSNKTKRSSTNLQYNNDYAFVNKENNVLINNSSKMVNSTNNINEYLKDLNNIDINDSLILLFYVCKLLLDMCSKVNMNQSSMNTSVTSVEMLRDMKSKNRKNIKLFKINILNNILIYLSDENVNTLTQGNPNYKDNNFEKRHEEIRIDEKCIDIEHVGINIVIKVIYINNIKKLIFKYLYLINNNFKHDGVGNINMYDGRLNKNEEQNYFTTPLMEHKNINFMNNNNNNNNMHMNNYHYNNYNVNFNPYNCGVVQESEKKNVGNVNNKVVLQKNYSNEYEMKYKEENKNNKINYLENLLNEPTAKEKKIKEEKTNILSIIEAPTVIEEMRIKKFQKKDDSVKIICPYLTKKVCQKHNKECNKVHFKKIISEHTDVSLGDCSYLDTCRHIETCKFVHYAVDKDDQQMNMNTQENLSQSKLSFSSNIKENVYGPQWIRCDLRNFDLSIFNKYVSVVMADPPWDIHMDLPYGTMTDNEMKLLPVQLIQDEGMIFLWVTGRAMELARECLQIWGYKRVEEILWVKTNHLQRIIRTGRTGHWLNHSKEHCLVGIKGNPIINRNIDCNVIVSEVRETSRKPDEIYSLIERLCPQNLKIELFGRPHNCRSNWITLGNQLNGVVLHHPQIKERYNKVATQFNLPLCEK

## C=CC[C@@H]1/C=C(\C)C[C@H](C)C[C@H](OC)[C@H]2O[C@@](O)(C(=O)C(=O)N3CCCC[C@H]3C(=O)O[C@H](/C(C)=C/[C@@H]3CC[C@@H](O)[C@H](OC)C3)[C@H](C)[C@@H](O)CC1=O)[C@H](C)C[C@@H]2OC [FK506]
[1]
  EC50: 152 nM
[2]
  EC50: 2000 nM
[3]
  EC50: 3100 nM
